{"source": "patent US9926340B2", "about": "“NAD analogs and methods of using said NAD analogs in determining ribosylation of proteins with PARP mutants” (The Board of Regents of the University of Texas System, priority 2015, dated 2018)", "test_system": "HeLa cell nuclear extract proteins", "experiment": "ADP-ribosylation of HeLa cell nuclear extract proteins by asPARPs 1, 2 or 3", "assay_type": "biochemical, human", "conditions": "purified recombinant asPARPs 1, 2, or 3; 250 μM analog, 15 min", "method": "HeLa cell nuclear extract preparation. HeLa Nuclear Extract was prepared essentially as described in Dignam et al., 1983. 5 L of HeLa S3 cells were grown in Spinner flasks to a density of 0.5×10^6 cells per milliliter and harvested by centrifugation at 4° C. for 10 minutes at 2000 RPM. Cell pellets were washed in 5 pelleted cell volumes of ice cold PBS and centrifuged 10 minutes at 2000 RPM. Cells were resuspended in 5 pelleted cell volumes of Buffer A (10 mM HEPES, pH 7.9, 1.5 mM MgCl2, 10 mM KCl, 0.5 mM DTT, 1 mM PMSF, 4 mM Benzamidine, 1 μM Aprotinin, 100 μM Leupeptin, 1 μM Pepstatin A) and incubated 10 minutes on ice to facilitate cell swelling and centrifuged at 4° C. for 10 minutes at 2000 RPM. Cells were resuspended in 2 pelleted cell volumes of Buffer A and dounced with a light pestle dounce homogenizer (Wheaton) to release nuclei. The nuclei were then pelleted by centrifugation at 4° C. for 10 minutes at 2000 RPM and the supernatant decanted. The nuclei were subsequently centrifuged at 4° C. for 20 minutes at 25,000 RCF to obtain a crude nuclear fraction. […]"}
{"smiles": "C#CCCSc1nc2c(N)ncnc2n1[C@@H]1O[C@H](COP(=O)(O)OP(=O)(O)OC[C@H]2O[C@@H]([n+]3cccc(C(N)=O)c3)C(O)C2O)[C@H](O)C1O", "note": "(stereo partly shown) [8-Bu(3-yne)T-NAD^+]", "values": [{"measurement": "labeling of HeLa cell nuclear extract proteins", "value": "PARP-specific labeling of extract proteins"}]}
